Experiment: Evaluation of polyglyceryl ester surfactants for structuring a liposome
Assay type: physicochemical
Conditions: class given by column head
Experimental: A series of polyglyceryl ester surfactants were evaluated to identify those capable of structuring a liposome. These reveal that liposome formation requires from 8 to 12 units of glycerol and a di-ester of C14-C18 fatty acid to establish a liposomal structure.

Substance	structure formed by the surfactant (O/W emulsion, liposome or W/O emulsion)
Polyglyceryl-10 Dioleate	forms liposomes
Polyglyceryl-10 Mono/Dioleate	forms O/W emulsions

— patent publication US10702475B2, “Liposome containing compositions and their use in personal care and food products” (priority 2017, dated 2020)
